Laboratory results: patent US11766430B2, “Methods of using a phenoxypropylamine compound to treat pain” (Minerva Neurosciences, Inc., priority 2018, dated 2023)
“Also recorded” adds a separate entry of the source.

What was measured:
Assay type in all cases: in vivo, Male Sprague Dawley rats
[1] = tested on: paclitaxel-induced peripheral neuropathic pain in rats; assay: Prevention of paclitaxel-induced peripheral neuropathic pain, paw withdrawal threshold, chronic administration (Example 6); conditions: for PWT compared to vehicle (in words): days 10 and 14
Experimental: (§1) Male Sprague Dawley rats from Envigo were used in the study. Animals were received at approximately 250 g and housed 3 per cage upon arrival. All rats were examined, handled, and weighed prior to initiation of the study to assure adequate health and suitability. During the course of the study, 12/12 light/dark cycles was maintained. The room temperature was be maintained between 20 and 23° C. with a relative humidity maintained around 50%. Chow and water was provided ad libitum for the duration of the study. All testing was performed during the animal's light cycle phase.
(§2) Paclitaxel (2 mg/kg) was purchased from Biolyse Pharma and injected i.p. on four alternate days (day 1, 3, 5 and 7) for a total of 4 injections at a dose volume of 1 mL/kg.
(§3) Gabapentin (100 mg/kg) was dissolved in saline and administered orally at a dose volume of 1 mL/kg. For prevention study, gabapentin was administered on day 14, sixty minutes prior to test. For reversal study, gabapentin was administered once daily for 2 weeks. On test days it was administered 60 minutes prior to test.
Prevention study: MIN-117 (10 mg/kg) was formulated in 0.5% (w/v) hydroxypropylmethyl cellulose (HPMC) 8°-120 centipoises in water and was administered i.p once daily for 7 or 14 days at a dose volume of 1 mL/kg. On test days, MIN-117 was administered 2 hours prior to test.
Rats were administered paclitaxel (2 mg/kg) on four alternate days (days 1, 3, 5 and 7). Baseline and post treatment Paw Withdrawal Threshold (PWT) were evaluated using von Frey filaments (Semmes-Weinstein filaments, Stoelting, Wood Dale, Ill., USA) of varying stiffness (0.4, 0.7, 1.2, 2.0, 3.6, 5.5, 8.5, 10, 15, 26 g). Animals were placed on a perforated metallic platform and allowed to acclimate to their surroundings for a minimum of 15 minutes before each test session. Each filament was presented perpendicular to the plantar surface with sufficient force to cause slight buckling against the paw, and then held until a positive response is noted (paw sharply withdrawn). As described by Chaplan et al. 1994, once the threshold was crossed, the 2 responses straddling the threshold are retrospectively designated as the first 2 responses. Four additional responses were measured to stimuli varied sequentially up or down based on the animal's response. […] The parameter k is from the Appendix 1 in Chaplan and was determined by the pattern of the von Frey responses (e.g. OXOXOX where ‘O’ indicates no response and ‘X’ denotes a withdrawal). […]
(§4) PWT was measured according to the Schematics in FIG. 9 (prevention) and FIG. 10 (reversal study).
Data was analyzed by analysis of variance (ANOVA) followed by post-hoc comparisons where appropriate. […]

[2] = Body weight, prevention study (Example 6); conditions: 10 mg/kg i.p. once daily for 7 or 14 days; effect seen from day 2 until day 11
Experimental: Body weight (BW) was measured daily during treatment and twice a week after cessation of dosing.
(§5) Data was analyzed by analysis of variance (ANOVA) followed by post-hoc comparisons where appropriate. An effect will be considered significant if p<0.05. Data was represented as the mean and standard error to the mean (s.e.m). Statistical outliers that fell above or below 2 standard deviations of the mean were identified but not removed from the final analysis.

[3] = tested on: paclitaxel-induced peripheral neuropathic pain in rats; assay: Reversal of paclitaxel-induced peripheral neuropathic pain, paw withdrawal threshold, chronic administration (Example 6); conditions: hydrochloride; for PWT compared to vehicle (in words): days 14, 21 and 28, 2 hours post dosing
Experimental: as §1, §2, §3
Reversal study: MIN-117 (1, 3 and 10 mg/kg) was formulated in 0.5% (w/v) hydroxypropylmethyl cellulose (HPMC) 8°-120 centipoises in water and administered i.p once daily for 2 weeks at a dose volume of 1 mL/kg. On test days, MIN-117 was administered 2 hours prior to test.
Rats were administered paclitaxel (2 mg/kg) on four alternate days (days 1, 3, 5 and 7). Baseline and post treatment Paw Withdrawal Threshold (PWT) were evaluated using von Frey filaments (Semmes-Weinstein filaments, Stoelting, Wood Dale, Ill., USA) of varying stiffness (0.4, 0.7, 1.2, 2.0, 3.6, 5.5, 8.5, 10, 15, 26 g). Animals were placed on a perforated metallic platform and allowed to acclimate to their surroundings for a minimum of 15 minutes before each test session. Each filament was presented perpendicular to the plantar surface with sufficient force to cause slight buckling against the paw, and then held until a positive response is noted (paw sharply withdrawn). As described by Chaplan et al. 1994, once the threshold was crossed, the 2 responses straddling the threshold are retrospectively designated as the first 2 responses. Four additional responses were measured to stimuli varied sequentially up or down based on the animal's response. The 6 responses in the immediate vicinity of the threshold were used to calculate the 50% g threshold: 50% g threshold=(10^[Xf+k*d])/10000 Xf is the final filament used (in log units). The parameter k is from the Appendix 1 in Chaplan and was determined by the pattern of the von Frey responses (e.g. OXOXOX where ‘O’ indicates no response and ‘X’ denotes a withdrawal). The parameter d is the difference between stimuli which Chaplan used a constant d=0.224. To accommodate for the use of the 10 g and 26 g filaments, the exact difference between stimuli were used.
as §4, §5

Cc1nnc(-c2cc3c(OC[C@@H](O)CN4CCC(c5ccc(Cl)c(Cl)c5)CC4)cccc3o2)o1.Cl [MIN-117, (2S)-1-(4-(3,4-dichlorophenyl)piperidin-1-yl)-3-((2-(5-methyl-1,3,4-oxadiazol-2-yl)benzofuran-4-yl)oxy)propan-2-ol hydrochloride]
PWT after cessation of treatment (in words) ([1]; 10 mg/kg i.p. for 7 or 14 days, day 21, one week or two weeks after cessation of treatment, hydrochloride): no analgesic effects; also recorded: returned to vehicle levels
PWT compared to vehicle (in words) ([1]; 10 mg/kg i.p. once daily for one week (7 days) starting one day prior to paclitaxel): significantly higher PWT
PWT compared to vehicle (in words) ([1]; 10 mg/kg i.p. once daily for two weeks (14 days) starting one day prior to paclitaxel, 2 hours post dosing): significantly higher PWT
Body weight compared to vehicle (in words) [2]: decrease in body weight
PWT compared to vehicle (in words) ([3]; 1 mg/kg i.p. once daily for 2 weeks): significant increase in PWT; also recorded: significantly higher PWT
PWT compared to vehicle (in words) ([3]; 3 mg/kg i.p. once daily for 2 weeks): significant increase in PWT; also recorded: significantly higher PWT
PWT compared to vehicle (in words) ([3]; 10 mg/kg i.p. once daily for 2 weeks): significant increase in PWT; also recorded: significantly higher PWT
PWT after cessation of treatment (in words) ([3]; 1, 3 and 10 mg/kg i.p., day 35, one week after cessation of treatment): no analgesic effects; also recorded: returned to vehicle levels
